Experimental data reported in patent US10067136B1, “Photoactivatable probes and uses thereof” (University of South Florida, priority 2016, dated 2018).
Entries after “also recorded” stand apart in the source; their conditions may differ.

Assays:
[1] = Ambient light stability evaluation (fluorescent lamps, 19F NMR); type: physicochemical; conditions: d4-methanol; for photodecomposition under ambient light (in words): after 7 days of light exposure; for diazirine remaining intact after ambient light exposure: one month, two linear fluorescent lamps (28 W each), room temperature
Procedure: (§1) Photolabel (1, 2, or 3) (1 mg) was dissolved in d4-methanol (500 μL) in a 5 mm NMR tube. The ^19F NMR of this solution was recorded before any exposure to ambient light as the zero day reading. The NMR tube was then placed directly under two linear fluorescent lamps (28 W each) at room temperature and the ^19F NMR of this solution was recorded periodically (4, 7, 14, 18, 26 and 31 days). The analysis was repeated in duplicate.

[2] = Thermal stability evaluation in the dark (19F NMR); type: physicochemical; conditions: d4-methanol solution, room temperature (21° C.), one month
Procedure: as §1, with “in the dark” for “directly under two linear fluorescent lamps (28 W each)”, “(8,” for “(4, 7,”, “14,” for “14, 18, 26”

concanavalin A (Con A) [3] = biological target: T1, concanavalin A (Con A) (Canavalia ensiformis, UniProt P02866); assay: Photolabeling of Con A, Coomassie gel and anti-biotin western blot; type: binding; conditions: for photolabeling of Con A upon UV photoactivation (in words): UV light >320 nm, 10 minutes, anti-biotin peroxidase western blot; for labeling of Con A without UV photoactivation (in words): incubated with Con A, not exposed to UV light
Procedure: To a solution of concanavalin A (Con A) (0.2 mg) in acetate buffer (10 mM, pH=5 with calcium chloride (1 mM), manganese (II) chloride (1 mM) and sodium chloride (200 mM)) (1 ml), the photoaffinity label (20, 21 or 22) solution (10 mM) in methanol (3 μL) was added at 0° C. This solution was bubbled with a gentle stream of nitrogen gas, using a clean needle, for 5 minutes and incubated in the dark at 0° C. for 30 minutes. […] The resultant sample can be stored at −80° C. and used for SDS gel, Western blot analysis or mass spectroscopic analysis.
Upon running the SDS gel, the PVDF membrane and gel was shaken in transfer buffer for 15 minutes. The holder cassette was placed opened in a shallow vessel such that the black panel was lying flat on the bottom of the vessel. Fiber pad presoaked with transfer buffer was then placed on the black panel of the holder cassette and a presoaked filter paper was placed over it. The equilibrated gel was carefully placed over the filter paper to avoid any air bubble getting trapped between the layers. Then the PVDF membrane was laid over the gel with care towards avoiding any air pocket between the layers. A presoaked filter paper was placed over the membrane followed by a filter pad. The resultant sandwich was firmly secured and the cassette was closed. The cassette holder was placed in the tank such that the black panel of the holder was on the black panel electrode. Insert the ice pack on the other side of the tank and place the tank on a magnetic stirrer. The tank was filled to the top row of circles in the cassette with transfer buffer. The magnetic stirrer was turned on and the lid was closed with black wire to black panel, red wire to red panel. The unit was connected to a power supply and ran at constant voltage of 70 V for 60 minutes. The membrane was carefully removed and the membrane was blocked with 5% (w/v) NFDM (non-fat dry milk) in tris saline Tween-20 buffer (TBS-T) for 1 hour at room temperature. The blocked membrane was then incubated overnight on a shaker at 4° C. with anti-biotin-peroxidase antibody in TBS-T buffer containing 1% NFDM. The membrane was washed five times (10 minutes each time on a shaker) with TBS-T buffer. The membrane was incubated for 5 minutes at room temperature with SuperSignal West Pico chemiluminescence substrate as per manufacturer's protocol. The resultant chemiluminescence of the bands was recorded on a photographic film and developed using a film processor.

[4] = Near UV-visible absorption spectra; type: physicochemical; conditions: near-UV/Vis, 2.5 mM solution in methanol; relative to the conventional photolabel
concanavalin A (Con A) [5] = biological target: T1, concanavalin A (Con A); assay: Photolabeling of Con A in the presence of mannose (competitive binding); conditions: competing mannose at 100 fold or 1000 fold, western blot
Procedure: For the competitive binding studies with mannose, to a solution of Con A (0.2 mg) in acetate buffer (10 mM, pH=5 with calcium chloride (1 mM), manganese (II) chloride (1 mM) and sodium chloride (200 mM)) (1 ml) a aqueous solution of mannose (30 μL of 100 mM solution for 100 fold [or] 30 μL of 1 M solution for 1000 fold) was added and mixed. To this the photoaffinity label (20, 21 or 22) solution (10 mM) in methanol (3 μL) was added at 0° C. This solution was bubbled with a gentle stream of nitrogen gas, using a clean needle, for 5 minutes and incubated in the dark at 0° C. for 30 minutes. The sample was then transferred to a disposable cuvette and photoactivated for 10 minutes using a 150 W XBO xenon short-arc UV lamp fitted with a filter that cuts off light with wavelengths less than 320 nm. The resultant sample can be stored at −80° C. and used for SDS gel and Western blot analysis.
Upon running the SDS gel, the PVDF membrane and gel was shaken in transfer buffer for 15 minutes. The holder cassette was placed opened in a shallow vessel such that the black panel was lying flat on the bottom of the vessel. Fiber pad presoaked with transfer buffer was then placed on the black panel of the holder cassette and a presoaked filter paper was placed over it. […] The resultant chemiluminescence of the bands was recorded on a photographic film and developed using a film processor.

Row | SMILES | photodecomposition under ambient light (in words) [1] | diazirine remaining intact after ambient light exposure [1] [%] | decomposition / stability in the dark (in words) [2] | photolabeling of Con A upon UV photoactivation (in words) (concanavalin A (Con A) [3]) | decrease of absorption coefficient ϵ [4] | labeling of Con A without UV photoactivation (in words) (concanavalin A (Con A) [3]) | photolabeling / crosslinking of Con A in the presence of mannose (in words) (concanavalin A (Con A) [5])
1 | OCc1ccc(C2(C(F)(F)F)N=N2)cn1 [compound 1, (5-(3-(trifluoromethyl)-3H-diazirin-3-yl)pyridin-2-yl)methanol] | negligibly photodecomposed | 79 | stable | as efficiently as the conventional diazirine photolabel 3 | approximately 15% |  | 
2 | OCc1ccc(C2(C(F)(F)F)N=N2)cc1 [compound 3, (4-(3-(trifluoromethyl)-3H-diazirin-3-yl)phenyl)methanol, reference compound] | significant photodecomposition | 27 | stable |  |  |  | 
3 | O=C(CCCCC1SCC2NC(=O)NC21)NCCCCCCN(Cc1ccc(C2(C(F)(F)F)N=N2)cc1)C(=O)CO[C@H]1O[C@H](CO)[C@@H](O)[C@H](O)[C@@H]1O (stereo partly drawn) [compound 20, 5-(2-oxohexahydro-1H-thieno[3,4-d]imidazol-4-yl)-N-(6-(N-(4-(3-(trifluoromethyl)-3H-diazirin-3-yl)benzyl)-2-(((2S,3S,4S,5S,6R)-3,4,5-trihydroxy-6-(hydroxymethyl)tetrahydro-2H-pyran-2-yl)oxy)acetamido)hexyl)pentanamide] |  |  |  | successfully labeled the protein target upon photoactivation |  | detected only with coomassie stain and not in the western blot analysis | 
4 | O=C(CCCCC1SCC2NC(=O)NC21)NCCCCCCN(Cc1ccc(C2(C(F)(F)F)N=N2)cn1)C(=O)CO[C@H]1O[C@H](CO)[C@@H](O)[C@H](O)[C@@H]1O (stereo partly drawn) [compound 21, 5-(2-oxohexahydro-1H-thieno[3,4-d]imidazol-4-yl)-N-(6-(N-((5-(3-(trifluoromethyl)-3H-diazirin-3-yl)pyridin-2-yl)methyl)-2-(((2S,3S,4S,5S,6R)-3,4,5-trihydroxy-6-(hydroxymethyl)tetrahydro-2H-pyran-2-yl)oxy)acetamido)hexyl)pentanamide] |  |  |  | successfully labeled the protein target upon photoactivation; also recorded: as effectively as the conventional phenyl derived photolabel 20 |  | detected only with coomassie stain and not in the western blot analysis | correlates indirectly to the concentration of competing mannose ligand
5 | O=C(CCCCC1SCC2NC(=O)NC21)NCCCCCCN(Cc1ncc(C2(C(F)(F)F)N=N2)cn1)C(=O)CO[C@H]1O[C@H](CO)[C@@H](O)[C@H](O)[C@@H]1O (stereo partly drawn) [compound 22, 5-(2-oxohexahydro-1H-thieno[3,4-d]imidazol-4-yl)-N-(6-(N-((5-(3-(trifluoromethyl)-3H-diazirin-3-yl)pyrimidin-2-yl)methyl)-2-(((2S,3S,4S,5S,6R)-3,4,5-trihydroxy-6-(hydroxymethyl)tetrahydro-2H-pyran-2-yl)oxy)acetamido)hexyl)pentanamide] |  |  |  | successfully labeled the protein target upon photoactivation; also recorded: as effectively as the conventional phenyl derived photolabel 20 |  | detected only with coomassie stain and not in the western blot analysis | correlates indirectly to the concentration of competing mannose ligand
6 | OCc1ncc(C2(C(F)(F)F)N=N2)cn1 [compound 2, (5-(3-(trifluoromethyl)-3H-diazirin-3-yl)pyrimidin-2-yl) methanol] | virtually unaffected | 90 | stable | as efficiently as the conventional diazirine photolabel 3 | ~30% |  | 
